# Earlier results in patent publication US20100041745A1, “Aigialomycin D and Derivatives Thereof and Their Use in Treating Cancer or Malaria or a Microbial Infection” (priority 2006, published 2010).
structure (smiles),measurement,setting,value
"C[C@H]1C/C=C/[C@@H](O)[C@@H](O)CC/C=C/c2cc(O)cc(O)c2C(=O)O1 [aigialomycin D, Aigialomycin D]",IC50 against Vero cells (antitumour activity),Vero cells,1.8 µg/mL
same,IC50 against KB cells (antitumour activity),KB cells,3.0 µg/mL
same,IC50 against P. falciparum (anti-malarial activity),P. falciparum,6.6 µg/mL
